Test results: ChEMBL document CHEMBL1201862, “PubChem BioAssay data set” (2004)
The source made the active and inactive calls.

What was measured:
Exodeoxyribonuclease V = target: T1, Exodeoxyribonuclease V (Escherichia coli (strain K12), UniProt P04993+P07648+P08394); assay: E. coli RecBCD inhibitors, dose response, counter-screen for AddAB inhibitor project, absorbance, V66 E. coli, mutant T4 phage (AID 492957); assay type: functional, cell-based, Escherichia coli str. K-12 substr. MG1655
T1 sequence (P04993 whole entry): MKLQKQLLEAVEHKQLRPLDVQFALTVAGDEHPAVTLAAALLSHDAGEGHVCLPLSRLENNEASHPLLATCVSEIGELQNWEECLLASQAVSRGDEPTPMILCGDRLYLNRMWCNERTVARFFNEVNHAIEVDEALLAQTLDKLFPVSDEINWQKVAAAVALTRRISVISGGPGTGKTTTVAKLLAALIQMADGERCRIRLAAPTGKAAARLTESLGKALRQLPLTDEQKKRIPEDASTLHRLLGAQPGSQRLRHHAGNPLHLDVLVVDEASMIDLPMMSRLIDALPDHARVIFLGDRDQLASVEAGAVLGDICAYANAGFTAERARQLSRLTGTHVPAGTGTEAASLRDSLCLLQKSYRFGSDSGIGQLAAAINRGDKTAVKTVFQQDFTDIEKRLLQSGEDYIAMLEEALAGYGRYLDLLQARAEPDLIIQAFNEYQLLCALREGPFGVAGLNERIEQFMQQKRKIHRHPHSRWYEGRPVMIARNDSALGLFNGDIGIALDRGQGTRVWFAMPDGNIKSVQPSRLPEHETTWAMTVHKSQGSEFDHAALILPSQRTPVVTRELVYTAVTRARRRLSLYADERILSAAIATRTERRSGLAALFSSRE
T1 sequence (P07648 whole entry): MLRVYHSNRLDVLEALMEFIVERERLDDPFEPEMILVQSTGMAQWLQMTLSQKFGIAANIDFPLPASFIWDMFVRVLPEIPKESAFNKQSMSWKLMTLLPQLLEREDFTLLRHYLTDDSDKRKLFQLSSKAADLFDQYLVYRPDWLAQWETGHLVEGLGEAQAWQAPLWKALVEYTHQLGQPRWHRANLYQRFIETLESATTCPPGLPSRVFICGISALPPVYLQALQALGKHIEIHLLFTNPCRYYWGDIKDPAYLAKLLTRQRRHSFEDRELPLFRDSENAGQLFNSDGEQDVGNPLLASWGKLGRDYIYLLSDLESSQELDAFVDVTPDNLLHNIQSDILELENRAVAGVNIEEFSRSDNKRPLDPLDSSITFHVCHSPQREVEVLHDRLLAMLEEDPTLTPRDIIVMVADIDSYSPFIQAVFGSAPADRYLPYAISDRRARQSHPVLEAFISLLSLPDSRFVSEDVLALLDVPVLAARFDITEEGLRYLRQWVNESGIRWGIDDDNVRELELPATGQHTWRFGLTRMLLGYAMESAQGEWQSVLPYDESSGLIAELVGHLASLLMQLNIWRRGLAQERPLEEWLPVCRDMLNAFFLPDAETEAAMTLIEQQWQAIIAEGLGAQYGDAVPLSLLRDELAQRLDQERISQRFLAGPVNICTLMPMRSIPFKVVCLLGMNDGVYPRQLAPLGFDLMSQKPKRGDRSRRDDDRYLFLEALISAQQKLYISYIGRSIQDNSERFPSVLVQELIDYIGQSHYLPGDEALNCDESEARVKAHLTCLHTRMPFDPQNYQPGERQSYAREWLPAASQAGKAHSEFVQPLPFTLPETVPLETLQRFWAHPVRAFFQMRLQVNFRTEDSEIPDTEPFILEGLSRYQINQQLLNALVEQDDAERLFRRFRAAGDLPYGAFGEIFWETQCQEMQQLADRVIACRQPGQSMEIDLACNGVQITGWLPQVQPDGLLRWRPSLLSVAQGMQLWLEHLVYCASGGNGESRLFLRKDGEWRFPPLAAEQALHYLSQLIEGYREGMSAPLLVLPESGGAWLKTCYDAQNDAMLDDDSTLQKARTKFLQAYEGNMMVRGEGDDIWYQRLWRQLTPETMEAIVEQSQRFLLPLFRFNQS
T1 sequence (P08394 whole entry): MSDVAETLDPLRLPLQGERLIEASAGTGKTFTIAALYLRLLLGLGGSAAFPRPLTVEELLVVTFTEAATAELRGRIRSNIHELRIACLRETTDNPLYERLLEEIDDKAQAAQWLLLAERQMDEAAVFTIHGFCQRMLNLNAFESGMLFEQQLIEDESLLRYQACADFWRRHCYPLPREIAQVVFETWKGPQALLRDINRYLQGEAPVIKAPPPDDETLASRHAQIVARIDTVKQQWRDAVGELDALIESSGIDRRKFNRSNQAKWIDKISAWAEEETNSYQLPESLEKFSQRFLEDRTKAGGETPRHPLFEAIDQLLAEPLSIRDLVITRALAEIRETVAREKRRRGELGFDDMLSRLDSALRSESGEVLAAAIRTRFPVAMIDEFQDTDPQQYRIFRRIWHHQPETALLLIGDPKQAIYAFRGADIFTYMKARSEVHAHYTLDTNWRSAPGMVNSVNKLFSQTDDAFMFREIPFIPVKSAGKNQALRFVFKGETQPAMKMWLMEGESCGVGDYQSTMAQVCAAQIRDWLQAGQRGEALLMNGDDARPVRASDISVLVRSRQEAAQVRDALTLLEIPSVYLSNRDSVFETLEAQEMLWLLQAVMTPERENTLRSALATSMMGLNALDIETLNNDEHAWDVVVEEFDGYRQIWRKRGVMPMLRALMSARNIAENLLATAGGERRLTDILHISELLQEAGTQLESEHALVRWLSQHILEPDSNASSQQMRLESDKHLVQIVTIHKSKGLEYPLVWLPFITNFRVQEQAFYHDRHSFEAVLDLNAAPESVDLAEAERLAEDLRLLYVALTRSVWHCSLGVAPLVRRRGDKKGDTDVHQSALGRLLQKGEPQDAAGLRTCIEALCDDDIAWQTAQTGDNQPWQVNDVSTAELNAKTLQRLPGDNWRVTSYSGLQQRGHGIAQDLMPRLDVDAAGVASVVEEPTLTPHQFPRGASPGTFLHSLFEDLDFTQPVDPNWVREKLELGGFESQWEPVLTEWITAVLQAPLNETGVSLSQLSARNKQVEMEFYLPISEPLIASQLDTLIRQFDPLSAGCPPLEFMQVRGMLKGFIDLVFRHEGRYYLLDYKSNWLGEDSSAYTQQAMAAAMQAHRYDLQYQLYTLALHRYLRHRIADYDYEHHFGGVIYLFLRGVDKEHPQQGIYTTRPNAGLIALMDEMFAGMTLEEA

[1] = Counterscreen for AddAB inhibitors: absorbance-based bacterial cell-based high throughput dose response assay for inhibitors of bacterial viability. [Related pubchem assays (depositor defined):AID435030, AID449728, AID449731, AID488942, AID488955, AID488956]; assay type: functional
CHO-K1 = assay: (§1) Counterscreen for antagonists of the orexin 1 receptor (OX1R; HCRTR1): Homogeneous time resolved fluorescence (HTRF)-based cell-based dose response assay to identify antagonists of the parental CHO-K1 cell line. [Related pubchem assays (depositor defined):AID434989, AID435008, AID463079, AID485270, AID492963, AID492964, AID492965, AID493232, AID504699, AID504701]; assay type: functional; details: Cricetulus griseus
[2] = as §1, with “Fluorescence-based” for “Homogeneous time resolved fluorescence (HTRF)-based”, “cell-based high throughput” for “cell-based”, “CHO” for “CHO-K1”; assay type: functional
[3] = target: T2, Orexin/Hypocretin receptor type 1 (Homo sapiens, UniProt O43613); assay: Homogeneous Time Resolved Fluorescence (HTRF)-based cell-based high throughput dose response assay for antagonists of the orexin 1 receptor (OX1R; HCRTR1). [Related pubchem assays (depositor defined):AID434989, AID435008, AID463079, AID485270, AID492963, AID492964, AID492965, AID493232, AID504717, AID504718]; assay type: functional
T2 sequence (O43613 whole entry): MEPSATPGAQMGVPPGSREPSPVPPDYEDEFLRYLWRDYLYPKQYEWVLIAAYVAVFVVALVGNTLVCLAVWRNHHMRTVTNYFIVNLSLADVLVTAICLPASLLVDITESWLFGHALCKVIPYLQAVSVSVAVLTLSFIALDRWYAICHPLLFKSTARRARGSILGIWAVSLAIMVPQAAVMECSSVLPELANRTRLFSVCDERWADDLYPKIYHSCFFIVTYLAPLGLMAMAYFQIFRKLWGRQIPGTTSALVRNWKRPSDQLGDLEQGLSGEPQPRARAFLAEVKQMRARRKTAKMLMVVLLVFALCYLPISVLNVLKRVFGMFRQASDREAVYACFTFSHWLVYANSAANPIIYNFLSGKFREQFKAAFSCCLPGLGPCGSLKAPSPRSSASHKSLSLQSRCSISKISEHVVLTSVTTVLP

[4] = target: T3, Heat shock factor protein 1 (Mus musculus, UniProt P38532); assay: HSF1 potentiators in luciferase reporter cells, confirmation, cell-based, NIH3T3, luminescence, dose retest (AID 435004); assay type: functional;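 further: stress induced by proteasome inhibitor MG132 added 30 min after compound; luciferase reporter driven by HSF1 response element in NIH3T3 cells; actives raise luminescence as potentiators of the MG132 stress response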
T3 sequence (P38532 whole entry): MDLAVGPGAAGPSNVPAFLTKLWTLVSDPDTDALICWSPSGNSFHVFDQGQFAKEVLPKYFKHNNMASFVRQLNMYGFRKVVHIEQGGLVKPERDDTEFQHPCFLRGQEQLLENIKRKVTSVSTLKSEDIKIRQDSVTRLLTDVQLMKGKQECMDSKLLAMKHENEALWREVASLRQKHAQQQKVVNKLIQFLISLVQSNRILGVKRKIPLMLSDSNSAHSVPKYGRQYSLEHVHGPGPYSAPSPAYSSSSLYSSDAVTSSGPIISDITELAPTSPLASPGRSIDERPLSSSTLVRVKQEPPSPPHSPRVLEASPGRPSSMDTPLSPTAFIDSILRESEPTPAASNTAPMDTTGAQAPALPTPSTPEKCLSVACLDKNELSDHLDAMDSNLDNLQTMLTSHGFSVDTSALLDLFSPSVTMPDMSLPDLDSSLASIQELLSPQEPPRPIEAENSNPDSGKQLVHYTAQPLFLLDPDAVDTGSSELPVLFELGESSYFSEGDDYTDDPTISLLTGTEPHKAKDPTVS

[5] = target: T2, Orexin/Hypocretin receptor type 1; assay: Fluorescence-based cell-based high throughput dose response assay for antagonists of the orexin 1 receptor (OX1R; HCRTR1). [Related pubchem assays (depositor defined):AID434989, AID435008, AID463079, AID485270, AID492963, AID492964, AID492965, AID493232, AID504717, AID504718]; assay type: functional

CCOc1cccc(/C=N/NC(=O)c2cc(-c3cccn3C)[nH]n2)c1O
inactive: IC50 (Exodeoxyribonuclease V) > 119 µM | IC50 [1] > 119 µM

OC(CN1c2ccccc2Sc2ccccc21)Cn1nnc2ccccc21 (configuration not stated)
inactive: IC50 (CHO-K1) > 66.2 µM | IC50 [2] 21.3 µM | IC50 [3] 13.3 µM | EC50 [4] > 260 µM | IC50 [5] 16.4 µM
